Test results published in PMC7136483 (Frontiers in Pharmacology, 2020).
Values joined by “and” are separate entries in the source; they are usually repeats but may differ in a detail not shown here. Identical values can stand only once.

Tests used:
[1] = Joint parent-metabolite NLME PK model of tamoxifen and endoxifen (structural, statistical and age covariate estimates); assay type: in vivo, human
Description: PK parameters for tamoxifen and endoxifen were simultaneously estimated.
The statistical model aimed to incorporate four levels of variability around the structural model. Thus, and due to the nature of the database, a nested hierarchy of random-effects components was set up comprising interstudy (ISV), interindividual (IIV), interoccasion (IOV), and residual unexplained variability (RUV) (see Supplementary Figure S1). While ISV and IIV characterize random deviations between different studies and patients, respectively, IOV describes the random variability within an individual patient across different occasions. The RUV captures the remaining variability across all observations.
IIV was evaluated on all structural PK parameters and implemented using exponential IIV models (Equation 1). Resulting individual PK parameters were assumed to arise from a log-normal distribution in which the ηik values are normally distributed with mean zero and variance estimate ωk2 .
While 27% of the patients had samples collected on one occasion (study day, i.e., one dosing interval = 1 day) only, 73% of patients in the PK database had samples collected on three to four occasions (i.e., 3–4 days) with rich sampling during one occasion (dosing interval) in studies 3–6.
For the RUV, a log-transformed both sides approach was applied (Equation 3).
Since tamoxifen and endoxifen PK were analyzed simultaneously, separate but correlated RUV terms were estimated.
A study effect was introduced as additional variability term on top of the random individual effect (IIV) (study hierarchically above individual level, see Supplementary Figure S1 and Equation 4) ([Laporte-Simitsidis et al., 2000]),
The covariate model was developed using a full covariate model approach ([Tunblad et al., 2008]; [Ravva et al., 2009]; [Gastonguay, 2011]): first, covariates were pre-selected based on specific criteria and introduced simultaneously into a full covariate model (for details see Supplementary Material 1, see section “Covariate Submodel Development”). Secondly, a covariate model refinement step was performed, selecting the most appropriate covariate functions for the preselected covariates, with respect to numerical and statistical evaluation criteria. Finally, the refined full covariate model was evaluated based on physiological plausibility of the estimated effect, statistical significance and clinical relevance criteria using advanced model evaluation techniques (Supplementary Material 1, see section “Advanced Model Evaluation Diagnostics”). To explore and quantify the reduction of unexplained variability upon introduction of covariate effects, the statistical model with the four levels of variability was exploited.
Furthermore, endoxifen PK parameter values (CL30/F = 5.1 L/h and VENDX/F = 400 L) were informed and used from a clinical study administering endoxifen only ([Ahmad et al., 2010b]).

CYP2D6 [2] = test: NLME PK model covariate: CYP2D6 activity score on endoxifen formation; assay type: in vivo, human
Description: To derive a patient’s CYP2D6 phenotype, the available genotype information, i.e., detected genetic polymorphisms (single nucleotide polymorphisms, SNPs, and copy number variants, CNVs), was translated via three steps: (1) From the reported nucleotide variation (wild-type ‘wt’ or altered nucleotide sequence ‘mut’) to a biallelic genotype, e.g., wt/mut: ^∗1/^∗41; (2) from the genotype to the activity score (AS), e.g., ^∗1/^∗41 → 1.5; (3) From the AS to the ‘traditional’ CYP2D6 phenotype category, e.g., 1.5 → normal metabolizer, gNM. […] Thus, each patient in the PK database was assigned a CYP2D6 activity score (seven AS categories from 0 to 3 in intervals of 0.5) and a respective CYP2D6 phenotype [four categories: poor (gPM, AS: 0), intermediate (gIM, AS: 0.5), normal (gNM, AS:1-2), and ultrarapid (gUM, […]) metabolizer; see Figure 1]. The prefix ‘g’ indicates the phenotype prediction from genotype.
(§1) Secondly, a covariate model refinement step was performed, selecting the most appropriate covariate functions for the preselected covariates, with respect to numerical and statistical evaluation criteria. Finally, the refined full covariate model was evaluated based on physiological plausibility of the estimated effect, statistical significance and clinical relevance criteria using advanced model evaluation techniques (Supplementary Material 1, see section “Advanced Model Evaluation Diagnostics”). To explore and quantify the reduction of unexplained variability upon introduction of covariate effects, the statistical model with the four levels of variability was exploited.
CYP2D6 activity score The CYP2D6 AS is a multichotomous covariate with seven ordered categories from 0 to 3 (step size of 0.5). For each patient in the PK database, an AS was derived from the reported CYP2D6 genotype.
The AS was introduced as ordered categorical covariate applying a fractional change model with four categories representing the ‘traditional’ CYP2D6 phenotype classes investigating two different grouping types for the intermediate (IM) and normal (NM) metaboliser group (depending on whether AS=1 is classified as IM or NM, see Figure 1 in main text), or with six AS categories only grouping AS 2.5 and 3 (Equation 8). To model the CYP2D6 activity scores, fiveseparate categorical covariate effects (for AS subgroups: 0, 0.5, 1, 1.5 and 2.5-3) were estimated while AS=2 was set as reference category (i.e. for a typical patient with AS=2: CL23/F = θRef). An indicator variable XAS,i was coded as 1 for a patient belonging into the respective AS category or 0 otherwise.

CYP2D6 [3] = molecular target: T1, CYP2D6 (Homo sapiens, UniProt P10635); test: NLME PK model covariate: SSRI (paroxetine/fluoxetine) comedication (CYP2D6 inhibitors); assay type: in vivo; details: during strong CYP2D6-inhibitor comedication
T1 construct: endogenous in cells; host or cells: breast cancer patients (in vivo, clinical PK data)
Method: as §1

[4] = cited from earlier work
[5] = design: method as in earlier work; details: ref Johnson et al., 2004, Kisanga et al., Lim et al., 2005, Mürdter et al., 2011, Gjerde et al., 2012; cited from earlier work
[6] = design: method as in Ahmad et al., 2010b; details: fixed in model, ref Ahmad et al., 2010b, cited from earlier work
[7] = Clinical PK database of six pooled tamoxifen studies: observed minimum steady-state concentrations
[8] = interindividual variability, final model
[9] = interoccasion variability, final model
[10] = fractional change of endoxifen formation vs AS 2
[11] = 20 mg dose group, across all studies, steady-state

T1 sequence (P10635 whole entry): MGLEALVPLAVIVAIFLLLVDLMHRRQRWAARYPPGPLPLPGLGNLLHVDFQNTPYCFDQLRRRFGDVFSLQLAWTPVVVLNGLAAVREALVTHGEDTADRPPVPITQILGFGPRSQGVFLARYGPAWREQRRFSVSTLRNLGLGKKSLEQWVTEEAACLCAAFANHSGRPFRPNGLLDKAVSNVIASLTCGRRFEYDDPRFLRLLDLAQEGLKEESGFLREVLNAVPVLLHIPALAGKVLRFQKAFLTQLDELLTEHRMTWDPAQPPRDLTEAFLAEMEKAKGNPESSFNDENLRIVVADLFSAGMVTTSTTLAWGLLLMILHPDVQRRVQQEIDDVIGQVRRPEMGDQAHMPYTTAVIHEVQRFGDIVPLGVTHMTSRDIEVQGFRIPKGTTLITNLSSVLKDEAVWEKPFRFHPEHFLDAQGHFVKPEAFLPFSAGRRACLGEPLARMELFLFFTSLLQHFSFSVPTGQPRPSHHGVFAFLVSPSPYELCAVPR

Which results are given for `CC/C(=C(\c1ccc(O)cc1)c1ccc(OCCNC)cc1)c1ccccc1` [endoxifen, 4-hydroxy-N-desmethyl-tamoxifen]?
IIV CL23/F [1, 8]: 47.2 % CV; IIV CL23/F, variance estimate [1, 8]: 0.201; IOV CL23/F, variance estimate [1, 9]: 0.0289; IOV CL23/F ([1]; interoccasion variability, final model (SSRI effect included)): 17.1 % CV; CL23/F (Ref.) ([1]; relative formation of endoxifen, reference patient: CYP2D6 AS 2, 65 years, no rifampicin or SSRI): 0.493 L/h; IIV CL23/F before covariate inclusion ([1]; without CYP2D6 AS and SSRI covariates): 63.3 % CV; IOV CL23/F before considering SSRI effect ([1]; without covariate): 26.4 % CV; fractional decrease from CL23/F reference value (CYP2D6 [2]; AS 1): 32.3%; fractional decrease from CL23/F reference value (CYP2D6 [2]; AS 1.5): 21.1%; CL23/F_AS: 0 (CYP2D6 [2]; [10]): −0.722; CL23/F_AS: 0.5 (CYP2D6 [2]; [10]): −0.510; CL23/F_AS: 1 (CYP2D6 [2]; [10]): −0.323; CL23/F_AS: 1.5 (CYP2D6 [2]; [10]): −0.211; CL23/F_AS: 2.5-3 (CYP2D6 [2]; [10]): 0.533; reduced endoxifen formation efficiency CL23/F (CYP2D6 [2]; intermediate metabolizers (AS: 0.5) vs AS 2): 51.0%; reduced endoxifen formation efficiency CL23/F (CYP2D6 [2]; poor metabolizers (AS: 0) vs AS 2): 72.2%; increased CL23/F (CYP2D6 [2]; ultrarapid metabolizer (AS ≥ 2.5) vs AS 2): 53.3%; change in endoxifen formation (CYP2D6 [3]): −65%; hazard ratio of the endoxifen exposure-response relationship ([4]; ref Madlensky et al. (2011)): 0.71; reduced risk of breast cancer recurrence related to endoxifen threshold concentration ([4]; ref Madlensky et al., 2011, Saladores et al., 2015): 26%; breast cancer patients not reaching proposed target endoxifen concentrations ([4]; tamoxifen standard dosing, ref Madlensky et al., 2011): ~20%; potency relative to parent tamoxifen [5]: 100 fold; CL30/F ([6]; relative clearance of endoxifen): 5.1 L/h and 5.10 fixed L/h; VENDX/F ([6]; relative volume of distribution of endoxifen): 400 L and 400 fixed L; %CVgeom of Css,min [7, 11]: 84.4%; median Css,min [7, 11]: 10.7 ng/mL; range of Css,min [7, 11]: 0.70 to 45.5 ng/mL; overall risk of subtarget endoxifen concentrations, observed ([7]; observed population of PK database, CSS,min below 5.97 ng/mL): 28.9%

With `CC/C(=C(\c1ccccc1)c1ccc(OCCN(C)C)cc1)c1ccccc1` [tamoxifen, reference compound] as the molecule, how does the ka ([1]; absorption rate constant, oral tamoxifen) read?
Its ka is 1.78 h⁻¹.

And the “IIV CL20/F, variance estimate” value [1, 8]?
The value was 0.148.

And the “IOV CL20/F, variance estimate” value [1, 9]?
The value was 0.0222.

What about the “total ISV before covariate introduction” value ([1]; interstudy variability) of the same molecule?
Its value is 31.2 % CV.

And the “total ISV upon covariate introduction” value ([1]; interstudy variability)?
Its value is 16.1 % CV.

What about the tlag ([1]; lag time) of the same molecule?
Its tlag is 0.389 h.

What about the VTAM/F ([1]; relative central volume of distribution, reference patient) of the same molecule?
The VTAM/F was 1120 L.

What about the “CL20/F (Ref.)” value ([1]; relative clearance of tamoxifen, reference patient: CYP2D6 AS 2, 65 years, no rifampicin or SSRI) of the same molecule?
Its value is 5.77 L/h.

What about the “IOV CL20/F before implementing rifampicin effect” value ([1]; without covariate) of the same molecule?
The value was 24.9 % CV.

What about the “range of Css,min” value [7, 11] of the same molecule?
The value was 3.05 to 448 ng/mL.
